Square brackets hold non-standard residues; d marks the D form. Peptide text beside a SMILES is read from it. 1Nal = N[C@@H](Cc1cccc2ccccc12)C(=O)O; 2Nal = N[C@@H](Cc1ccc2ccccc2c1)C(=O)O; d1Nal = N[C@H](Cc1cccc2ccccc12)C(=O)O; Tiq1c(1S) = O=C(O)[C@H]1NCCc2ccccc21; His(π-Me) = Cn1cncc1C[C@H](N)C(=O)O; Tic = O=C(O)[C@@H]1Cc2ccccc2CN1; dTic = O=C(O)[C@H]1Cc2ccccc2CN1; dOrn = NCCC[C@@H](N)C(=O)O; Orn = NCCC[C@H](N)C(=O)O; Aze = O=C(O)[C@@H]1CCN1; Dab = NCC[C@H](N)C(=O)O; Abu = CC[C@H](N)C(=O)O

The target in the assay is T1, CXCR7 (Homo sapiens, UniProt P25106).
T1 construct: host or cells: CHO (PathHunter CHO-CXCR7 β-arrestin cells)
T1 sequence (P25106 whole entry): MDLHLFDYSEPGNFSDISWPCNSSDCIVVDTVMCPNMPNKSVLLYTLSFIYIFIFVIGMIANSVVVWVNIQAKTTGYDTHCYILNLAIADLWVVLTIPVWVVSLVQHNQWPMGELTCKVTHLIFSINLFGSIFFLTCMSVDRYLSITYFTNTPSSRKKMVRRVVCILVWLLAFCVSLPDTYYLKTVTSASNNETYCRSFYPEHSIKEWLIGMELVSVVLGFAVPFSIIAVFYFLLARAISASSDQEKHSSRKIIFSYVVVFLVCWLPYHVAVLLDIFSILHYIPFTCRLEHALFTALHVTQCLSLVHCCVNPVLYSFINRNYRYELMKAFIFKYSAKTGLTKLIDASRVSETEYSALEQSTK
In words: CXCR7 β-arrestin recruitment assay (PathHunter CHO-CXCR7, agonistic assay). The assay is classed as cell-based. Particulars: CHO CXCR7 β-arrestin cells, agonistic assay, 90 min at 37° C., chemiluminescence; read-out: β-Arrestin EC50. The method, then: Lyophilized peptides were weighed on a Microbalance (Mettler MX5) and dissolved in DMSO to a final concentration of 10 mM unless otherwise stated. Stock solutions were kept at +4° C., and protected from light.
2.2 CXCR7 β-Arrestin Recruitment Assay
The PathHunter CHO-CXCR7 (DiscoverX) assay was performed according to the manufacturer's protocol. In brief, CHO CXCR7 β-arrestin cells were seeded at a density of 5000 cells per well in 40 μl of F12 medium in a 96-half volume well black culture plate and incubated overnight at 37° C. in a humidified atmosphere with 5% CO2. The next day, serial dilutions of PEM compounds have been prepared in DMSO and subsequently diluted in HBSS buffer containing 0.1% BSA.
For agonistic assay, 10 μl of compound solution or a solution of stromal cell-derived factor-1 (SDF-1) as positive control was added to the cells with a final DMSO concentration of 1% (v/v). The plate was incubated for 90 min at 37° C. in 5% CO2 incubator with gentle shaking (300 rpm) before addition of 40 ul of detection reagent per well. Reaction was developed 90 min at room temperature in the dark with shaking, and chemiluminescence was measured with a Topcount (Perkin Elmer) luminescence counter.
On the technique in general: Recruitment of arrestin is a read-out of receptor activation apart from second messengers.
A word on the EC50: it is the concentration needed to bring the measured effect to its halfway point. Regarding `CC[C@H](C)[C@@H]1NC(=O)[C@@H]2Cc3ccccc3CN2C(=O)[C@H]2CCCN2C(=O)[C@H](CCCNC(=N)N)NC(=O)[C@H](Cc2c[nH]c3ccccc23)NC(=O)[C@@H](Cc2c[nH]cn2)NC1=O` [compound 32, cyclo(-Ile-^DHis-Trp-Arg-^DPro-Tic-)] (cyclo(I[dH]WR[dP][Tic])), the EC50 worked out at 0.0708 ± 0.0143 µM.

With `N=C(N)NCCC[C@@H]1NC(=O)[C@H](Cc2c[nH]c3ccccc23)NC(=O)[C@@H](Cc2c[nH]cn2)NC(=O)[C@H](Cc2c[nH]c3ccccc23)NC(=O)[C@@H]2Cc3ccccc3CN2C(=O)[C@H]2CCCN2C1=O` [compound 11, cyclo(-Trp-^DHis-Trp-Arg-^DPro-Tic-)] (cyclo(R[dP][Tic]W[dH]W)), the 50% effective concentration (EC50) came to 0.204 ± 0.0081 µM.

For `N=C(N)NCCC[C@@H]1NC(=O)[C@H](Cc2c[nH]c3ccccc23)NC(=O)[C@@H](Cc2c[nH]c3ccccc23)NC(=O)[C@H](Cc2c[nH]c3ccccc23)NC(=O)[C@@H]2Cc3ccccc3CN2C(=O)[C@H]2CCCN2C1=O` [Ex. 10, cyclo(-Trp-^DTrp-Trp-Arg-^DPro-Tic-)] (cyclo(R[dP][Tic]W[dW]W)), the EC50 turned out to be 0.0649 ± 0.113 µM.

For the compound `N=C(N)NCCC[C@@H]1NC(=O)[C@H](Cc2c[nH]c3ccccc23)NC(=O)[C@@H](Cc2ccccc2)NC(=O)[C@H](Cc2c[nH]c3ccccc23)NC(=O)[C@@H]2CCCN2C(=O)[C@H]2Cc3ccccc3CN2C1=O` [Ex. 40, cyclo(-Trp-^DPhe-Trp-Arg-^DTic-Pro-)] (cyclo(PW[dF]WR[dTic])), the 50% effective concentration (EC50) came out at 0.0836 ± 0.0227 µM.

Consider `N=C(N)NCCC[C@@H]1NC(=O)[C@H](Cc2c[nH]c3ccccc23)NC(=O)[C@@H](Cc2ccccc2)NC(=O)[C@H](Cc2ccc3ccccc3c2)NC(=O)[C@@H]2Cc3ccccc3CN2C(=O)[C@H]2CCCN2C1=O` [compound 8, cyclo(-2Nal-^DPhe-Trp-Arg-^DPro-Tic-)] (cyclo([2Nal][dF]WR[dP][Tic])), for which the concentration for a half-maximal effect (EC50) came to 0.0089 ± 0.0058 µM.

For `CC[C@H](C)[C@@H]1NC(=O)[C@H](Cc2c[nH]c3ccccc23)NC(=O)[C@@H](CCCNC(=N)N)NC(=O)[C@H](Cc2c[nH]c3ccccc23)NC(=O)[C@@H]2CCN2C(=O)[C@H]2CCCN2C1=O` [compound 46, cyclo(-Trp-^DArg-Trp-Ile-^DPro-Azt-)] (cyclo([Aze]W[dR]WI[dP])), the half-maximal effective concentration (EC50) amounted to 0.208 ± 0.0502 µM.

Consider `N=C(N)NCCC[C@@H]1NC(=O)[C@H](Cc2c[nH]c3ccccc23)NC(=O)[C@@H](Cc2ccccc2)NC(=O)[C@H](Cc2cccc3ccccc23)NC(=O)[C@@H]2Cc3ccccc3CN2C(=O)[C@H]2CCCN2C1=O` [compound 7, cyclo(-1Nal-^DPhe-Trp-Arg-^DPro-Tic-)] (cyclo([1Nal][dF]WR[dP][Tic])), for which the concentration for a half-maximal effect (EC50) stood at 0.0616 ± 0.0016 µM.

In the case of `N=C(N)NCCC[C@@H]1NC(=O)[C@@H]2Cc3ccccc3CN2C(=O)[C@H]2CCCN2C(=O)[C@H](CCCNC(=N)N)NC(=O)[C@H](Cc2c[nH]c3ccccc23)NC(=O)[C@@H](Cc2ccccc2)NC1=O` [compound 6, cyclo(-Arg-^DPhe-Trp-Arg-^DPro-Tic-)] (cyclo(R[dF]WR[dP][Tic])), the EC50 is 0.0128 ± 0.0045 µM.

On to `NCC[C@@H]1NC(=O)[C@H](Cc2c[nH]c3ccccc23)NC(=O)[C@@H](Cc2ccccc2)NC(=O)[C@H](Cc2c[nH]c3ccccc23)NC(=O)[C@@H]2Cc3ccccc3CN2C(=O)[C@H]2CCCN2C1=O` [compound 22, cyclo(-Trp-^DPhe-Trp-Dab-^DPro-Tic-)] (cyclo([Dab][dP][Tic]W[dF]W)), for which the EC50 turned out to be 0.0126 ± 0.0016 µM.

For the compound `N=C(N)NCCC[C@@H]1NC(=O)[C@@H](Cc2ccccc2)NC(=O)[C@H](Cc2c[nH]c3ccccc23)NC(=O)[C@@H]2Cc3ccccc3CN2C(=O)[C@H]2CCCN2C(=O)[C@H](CCCNC(=N)N)NC1=O` [compound 19, cyclo(-Trp-^DPhe-Arg-Arg-^DPro-Tic-)] (cyclo(RR[dP][Tic]W[dF])), the EC50 is 0.178 ± 0.102 µM.

Regarding `N=C(N)NCCC[C@@H]1NC(=O)[C@H](Cc2c[nH]c3ccccc23)NC(=O)[C@@H](CCCN)NC(=O)[C@H](Cc2c[nH]c3ccccc23)NC(=O)[C@@H]2Cc3ccccc3CN2C(=O)[C@H]2CCCN2C1=O` [compound 14, cyclo(-Trp-^DOrn-Trp-Arg-^DPro-Tic-)] (cyclo(R[dP][Tic]W[dOrn]W)), the half-maximal effective concentration (EC50) amounted to 0.111 ± 0.0754 µM.

As to `N=C(N)NCCC[C@@H]1NC(=O)[C@H](Cc2ccc(O)cc2)NC(=O)[C@@H](Cc2c[nH]cn2)NC(=O)[C@H](Cc2cccc3ccccc23)NC(=O)[C@@H]2CCN2C(=O)[C@H]2CCCN2C1=O` [compound 45, cyclo(-1Nal-^DHis-Tyr-Arg-^DPro-Azt-)] (cyclo([1Nal][dH]YR[dP][Aze])), the EC50 was 0.0444 ± 0.0254 µM.

Turning to `CC[C@H](C)[C@@H]1NC(=O)[C@@H](Cc2c[nH]cn2)NC(=O)[C@H](Cc2cccc3ccccc23)NC(=O)[C@@H]2CCN2C(=O)[C@H]2CCCN2C(=O)[C@H](CCCNC(=N)N)NC1=O` [Ex. 42, cyclo(-1Nal-^DHis-Ile-Arg-^DPro-Azt-)] (cyclo([1Nal][dH]IR[dP][Aze])), the EC50 was 0.0857 ± 0.0766 µM.

Regarding `N=C(N)NCCC[C@@H]1NC(=O)[C@H](Cc2c[nH]c3ccccc23)NC(=O)[C@@H](Cc2ccccc2)NC(=O)[C@H](Cc2c[nH]c3ccccc23)NC(=O)[C@@H]2Cc3ccccc3CN2C(=O)[C@H]2CCCN2C1=O` [compound 9, cyclo(-Trp-^DPhe-Trp-Arg-^DPro-Tic-)] (cyclo(R[dP][Tic]W[dF]W)), the concentration for a half-maximal effect (EC50) worked out at 0.0048 ± 0.0044 µM.

For `O=C1N[C@@H](Cc2c[nH]c3ccccc23)C(=O)N2CCC[C@@H]2C(=O)N2Cc3ccccc3C[C@H]2C(=O)N[C@@H](Cc2c[nH]cn2)C(=O)N[C@H](Cc2cccc3ccccc23)C(=O)N[C@H]1Cc1c[nH]cn1` [compound 39, cyclo(-His-^D1Nal-His-Trp-^DPro-Tic-)] (cyclo(HW[dP][Tic]H[d1Nal])), the EC50 came to 0.269 ± 0.0801 µM.

Take `N=C(N)NCCC[C@@H]1NC(=O)[C@H](Cc2c[nH]c3ccccc23)NC(=O)[C@@H](CCCNC(=N)N)NC(=O)[C@H](Cc2cccc3ccccc23)NC(=O)[C@@H]2CCN2C(=O)[C@H]2CCCN2C1=O` [compound 44, cyclo(-1Nal-^DArg-Trp-Arg-^DPro-Azt-)] (cyclo([1Nal][dR]WR[dP][Aze])): the concentration for a half-maximal effect (EC50) amounted to 0.146 ± 0.0818 µM.

For the compound `CC[C@H](C)[C@@H]1NC(=O)[C@@H](CCCNC(=N)N)NC(=O)[C@H](Cc2c[nH]c3ccccc23)NC(=O)[C@@H]2CCN2C(=O)[C@H]2CCCN2C(=O)[C@H](CCCNC(=N)N)NC1=O` [compound 50, cyclo(-Trp-^DArg-Ile-Arg-^DPro-Azt-)] (cyclo([Aze]W[dR]IR[dP])), the EC50 worked out at 0.0477 ± 0.0219 µM.

On to `N=C(N)NCCC[C@@H]1NC(=O)[C@H](Cc2c[nH]c3ccccc23)NC(=O)[C@@H](CCCNC(=N)N)NC(=O)[C@H](Cc2c[nH]c3ccccc23)NC(=O)[C@@H]2Cc3ccccc3CN2C(=O)[C@H]2CCCN2C1=O` [compound 13, cyclo(-Trp-^DArg-Trp-Arg-^DPro-Tic-)] (cyclo(R[dP][Tic]W[dR]W)), for which the EC50 is 0.128 ± 0.0325 µM.

With `N=C(N)NCCC[C@@H]1NC(=O)[C@H](Cc2c[nH]c3ccccc23)NC(=O)[C@@H](Cc2c[nH]cn2)NC(=O)[C@H](Cc2c[nH]c3ccccc23)NC(=O)[C@@H]2CCN2C(=O)[C@H]2CCCN2C1=O` [compound 48, cyclo(-Trp-^DHis-Trp-Arg-^DPro-Azt-)] (cyclo([Aze]W[dH]WR[dP])), the concentration for a half-maximal effect (EC50) is 0.342 ± 0.0468 µM.

Consider `CC[C@@H]1NC(=O)[C@@H]2Cc3ccccc3CN2C(=O)[C@H]2CCCN2C(=O)[C@H](Cc2c[nH]c3ccccc23)NC(=O)[C@H](CCCNC(=N)N)NC(=O)[C@@H](CCCNC(=N)N)NC1=O` [compound 30, cyclo(-Abu-^DArg-Arg-Trp-^DPro-Tic-)] (cyclo([Abu][dR]RW[dP][Tic])), for which the 50% effective concentration (EC50) is 0.0975 ± 0.0063 µM.

As to `N=C(N)NCCC[C@@H]1NC(=O)[C@@H]2Cc3ccccc3CN2C(=O)[C@H]2CCCN2C(=O)[C@H](CCCNC(=N)N)NC(=O)[C@H](Cc2c[nH]c3ccccc23)NC(=O)[C@@H](Cc2c[nH]cn2)NC1=O` [compound 36, cyclo(-Arg-^DHis-Trp-Arg-^DPro-Tic-)] (cyclo(R[dH]WR[dP][Tic])), the concentration giving a half-maximal response (EC50) amounted to 0.144 ± 0.136 µM.

As to `CC[C@H](C)[C@@H]1NC(=O)[C@@H](CCCNC(=N)N)NC(=O)[C@H](Cc2cccc3ccccc23)NC(=O)[C@@H]2CCN2C(=O)[C@H]2CCCN2C(=O)[C@H](CCCNC(=N)N)NC1=O` [compound 43, cyclo(-1Nal-^DArg-Ile-Arg-^DPro-Azt-)] (cyclo([1Nal][dR]IR[dP][Aze])), the EC50 stood at 0.0412 ± 0.0083 µM.

Regarding `NCCC[C@@H]1NC(=O)[C@H](Cc2c[nH]c3ccccc23)NC(=O)[C@@H](Cc2ccccc2)NC(=O)[C@H](Cc2c[nH]c3ccccc23)NC(=O)[C@@H]2Cc3ccccc3CN2C(=O)[C@H]2CCCN2C1=O` [compound 21, cyclo(-Trp-^DPhe-Trp-Orn-^DPro-Tic-)] (cyclo([Orn][dP][Tic]W[dF]W)), the EC50 is 0.0121 µM.

Take `N=C(N)NCCC[C@@H]1NC(=O)[C@H](Cc2c[nH]c3ccccc23)NC(=O)[C@@H](Cc2ccccc2)NC(=O)[C@H](Cc2c[nH]c3ccccc23)NC(=O)[C@@H]2c3ccccc3CCN2C(=O)[C@H]2CCCN2C1=O` [Ex. 25, cyclo(-Trp-^DPhe-Trp-Arg-^DPro-Tiq-)] (cyclo(R[dP][Tiq1c(1S)]W[dF]W)): the 50% effective concentration (EC50) was 0.0004 µM.

Turning to `Cn1cncc1C[C@@H]1NC(=O)[C@@H]2Cc3ccccc3CN2C(=O)[C@H]2CCCN2C(=O)[C@H](CCCNC(=N)N)NC(=O)[C@H](Cc2c[nH]c3ccccc23)NC(=O)[C@@H](Cc2ccccc2)NC1=O` [Ex. 4, cyclo(-His(Me)-^DPhe-Trp-Arg-^DPro-Tic-)] (cyclo([His(π-Me)][dF]WR[dP][Tic])), the concentration for a half-maximal effect (EC50) turned out to be 0.0325 ± 0.0039 µM.

Source of the values: US8629112B2, “Template-fixed peptidomimetics with CXCR7 modulating activity” (priority 2010, dated 2014).
